What was measured:
[1] = tested on: B16F10 mouse melanoma cells; test: Brain tumor formation (B16F10 cells injected into right front brain), tail vein curcumin; assay type: in vivo, C57BL mouse
Experimental: Generation of Tumors. The mice were given food and water ad libitum and subjected to 12 hour dark/12 hour light cycles. To generate brain tumors in mice, B16F10 mouse melanoma cells or GL261 mouse glioma cells (1000 cells in 5 μl PBS per C57BL mouse) were injected into the right front brain [coordinates: with respect to the Bregma (in mm) AP=2.5; L=−1.1; D=1.5] at the rate of 1 μl per minute using a stereotaxic set-up (KDS Model 310plus infusion-withdrawal syringe pump) (Paxinos, G., and Franklin, K. B. J., The mouse brain in stereotaxic coordinates. 2nd ed. 2001, New York: Academic Press). Before the cell injection, the mouse was anesthetized by injecting (sc) xylazine (10 mg/Kg) and ketamine (100 mg/Kg), the head was shaved, and then the head was immobilized on a Stoelting sterotaxic frame. The mouse was determined to be in deep anesthesia by checking for regular, relaxed respiration and the lack of response to tail/toe pinch before its head was immobilized. The head was cleaned with 70% ethanol and then, using a sterile scalpel, a midline incision was made and subcutaneous muscle and fascia retracted to expose the skull. A hole was made in the skull with a dental drill and the cells injected as described above using a Hamilton syringe fitted to the syringe pump. Under the described condition of anesthesia, the mouse remains unconscious for about 90 min. The total time taken for immobilization of the mouse, exposure of the skull, and injection was about 30 min. Thus, the total time required from the injection of anesthetics to the completion of surgery was less than one hour. After the injection, the hole in the skull was sealed with sterile bone wax and the skin and muscle placed back in place with appropriate 7-mm stainless steel clips (Reflex Skin closure system; Cellpoint Scientific). For wound healing, a topical antibiotic (Triple Antibiotic, containing Polymyxin B, Bacitracin, and Neomycin) was applied and for post-operative care the animal was kept in a warm blanket at 35-37° C. taking precautions to avoid thermal injury. On the first day after surgery (day 2), a sterile, 37° C. solution of physiologic saline was administered (IP) at the dose of 1 ml/100 g body weight. The animals were then caged individually with access to food and water and kept under close monitoring. The mice also received acetaminophen (Tylenol syrup) 1 mg/ml in drinking water daily until they returned to complete normalcy in terms of both behavior and appearance (body weight; reduced locomotion, vocalization, lack of grooming, wound scratching; and signs inflammation at the surgical site).
Curcumin Treatment. The control mice received, aseptically, the carrier (3% DMSO in 200 μl PBS) daily from the next day (day 2), through the tail vein after placing the mouse in a restraining cage without anesthetics. Other mice similarly received 667 μM curcumin in 200 μl of PBS containing 3% DMSO daily from the next day (day 2) for 18 days (through day 19) through the tail vein. Other mice received the same curcumin solution daily from day 4, day 6, day 8 or day 10. One mouse (designated Mouse 2) received a single dose of curcumin (5 μl of 667 μM solution) five minutes after injection of B16F10 cells into the brain, using the same stereotaxic set-up.
Monitoring and Sample Preparation. The effects of brain tumor on movement generally appeared in about two to three weeks. The mice were monitored for disorders in movement using an open field VIDEO monitoring set up (10 min per mouse). Blood was collected from the saphenous vein to test for markers for cancer and cell and organ damage. Additionally, MRI was performed on the mice to monitor the growth and progression of brain tumors. […]

[2] = tested on: HOG (human oligodendroglioma) cells; test: Cell viability assay using MTT, HOG; assay type: cell-based; settings: 25 μM and 50 μM, 48 h or 96 h, versus control cells (FIG. 6e)
Experimental: Cells. B16F10 (mouse melanoma), GL261 (mouse glioma), HOG (human oligodendroglioma), A549 (human lung cancer), and N18 (mouse neuroblastoma) cells were cultured separately in DMEM containing 10% (v/v) fetal bovine serum and 1% (v/v) penicillin-streptomycin (PS) and allowed to grow to 40% confluence in a 96-well plate.
Curcumin Treatment. Two hours before drug treatment, the medium in each well was replaced with 200 μl Neurobasal medium supplemented with 2% (v/v) B27 and 1% (v/v) PS (Drug-treatment Medium). A stock solution (40 mM) of curcumin was prepared in sterile dimethyl sulfoxide (DMSO) (Example 1). Through serial dilution of each stock solution in Drug-treatment Medium, the following concentrations were obtained: 20 μM and 50 μM (for caspase 3/7 assays) or 25 μM and 50 μM (for MTT assays). […] Additionally, the background absorbance was determined from parallel wells containing only the Drug-treatment Medium plus a particular concentration of the drug (no cells).
Cell Viability Assay Using MTT (3-(4,5-Dimethylthiazolyl-2)-2,5-Diphenyltetrazolium Bromide). […] Absorbance was measured at 570 nm using a 96-well multi scanner auto-reader with the extraction buffer used as blank. For curcumin samples, the absorbance obtained from the corresponding curcumin plus medium samples was subtracted.

For `COc1cc(/C=C/C(=O)CC(=O)/C=C/c2ccc(O)c(OC)c2)ccc1O` [curcumin], the “brain tumor formation and morbidity” value ([1]; B16F10 cells in right frontal lobe, 200 μl of 667 μM curcumin daily, tail vein, day 2 to day 19) was “blocked”, the “tissue disintegration (hematoxylin and eosin staining of brain tissue)” value ([1]; curcumin-injected mice (FIG. 8B)) was “completely blocked” and the movement ([1]; daily curcumin injections, day 20) was “normal movement”. For the same compound, the movement and behavior ([1]; daily curcumin injections, days 21, 28, and 39) was “normal movement and behavior”, the “tumors in the right frontal lobe” value ([1]; single dose (5 μl of 667 μM, into brain five minutes after B16F10 cells; Mouse 2)) was “Large tumors were observed” and the condition of mouse ([1]; single dose (5 μl of 667 μM, into brain five minutes after B16F10 cells; Mouse 2), day 21) was “hunched up and morbid”. For the same compound, the “cell viability (MTT)” value [2] was “dramatic decrease”.

Source: patent publication US20100197584A1, “USE OF CURCUMIN TO BLOCK BRAIN TUMOR FORMATION IN MICE” (Research Foundations of the City University of- New York, priority 2007, published 2010)
